Consider three compounds from patent publication EP4800013A1, “PARG INHIBITOR” (Shanghai Qilu Pharmaceutical Research and Development …, priority 2023, dated 2025).

One series concerns the target T1, PXR (Homo sapiens, UniProt O75469).
T1 construct: host or cells: DPX2 (HepG2 stably transfected)
T1 sequence (O75469 1-434): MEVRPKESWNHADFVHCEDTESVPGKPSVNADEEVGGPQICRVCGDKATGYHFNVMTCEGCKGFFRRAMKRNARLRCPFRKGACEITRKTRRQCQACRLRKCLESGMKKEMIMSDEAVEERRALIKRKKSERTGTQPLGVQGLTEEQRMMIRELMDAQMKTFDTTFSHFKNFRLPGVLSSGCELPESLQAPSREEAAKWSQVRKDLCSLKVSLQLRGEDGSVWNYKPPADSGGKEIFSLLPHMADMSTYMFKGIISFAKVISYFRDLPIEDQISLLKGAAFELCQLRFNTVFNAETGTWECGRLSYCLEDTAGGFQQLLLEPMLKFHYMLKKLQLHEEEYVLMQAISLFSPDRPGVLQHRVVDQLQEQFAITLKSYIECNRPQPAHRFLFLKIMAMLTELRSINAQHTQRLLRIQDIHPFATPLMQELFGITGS
Description: PXR activation in stably transfected DPX2 cells (CYP3A4 promoter-driven luciferase reporter). The series is classed as cell-based. As to conditions: 24 or 48 hours, test concentration not given. The method, then: The purpose of this study was to evaluate the potential of the compounds of the present disclosure and the comparative compound (WO2023183850A1, compound of formula A) to activate PXR in vitro, thereby inducing drug-metabolizing enzymes.
DPX2 cells (HepG2 cell line stably transfected with PXR and a CYP3A4 promoter-driven luciferase reporter gene) were purchased from Puracyp Inc (Carlsbad, CA). Fetal bovine serum was purchased from Acantor.
• 1) DPX2 cells were cultured in medium containing 10% fetal bovine serum (FBS). • 2) DPX2 cells were cultured in a T-75 flask in a cell culture incubator at 37°C with 5% CO2 and 95% relative humidity. The cells were subjected to trypsinization when they reached 80% to 90% confluence. • 3) The medium was aspirated from the T-75 flask, and the cells were rinsed with 10 mL of PBS. After removing PBS, 3 to 5 mL of trypsin was added. The flask was incubated at 37°C for approximately 5 minutes or until cell detachment and floating were observed. […] After 24 or 48 hours of cell treatment, quantification of PXR activation was performed. • 8) CellTiter Fluor™ Cell Viability Assay Kit and One-Glo Luciferase Assay Kit were equilibrated to room temperature. […] 25 µL of the prepared cell viability assay system was gently added to each well, followed by incubation for 30 minutes in the cell culture incubator at 37°C. • 10) The 384-well plate was removed from the cell culture incubator, and fluorescence of individual wells was measured using a microplate reader in fluorescence mode with excitation at 400 nm and emission at 505 nm. Subsequently, 25 µL of the prepared luciferase assay system was gently added to each well, followed by vortexing and incubation at room temperature for 5 minutes, and luminescence of individual wells was measured using a microplate reader.
Cell viability percentage was calculated using the following formula: Cell viability (%) = Isample / Ivehicle × 100, where Isample is the mean fluorescence intensity of treated wells; Ivehicle is the mean fluorescence intensity of cells treated with 0.1% DMSO. […]

Series [1] can be described thus: Pharmacokinetic evaluation in BALB/c nude mice (PO). The series is classed as in vivo. As to conditions: female, mouse, plasma, 30 mg/kg. As for the experimental part:
Using mice as test animals, the compounds of the present disclosure were administered via intravenous bolus and oral injection. Plasma samples were collected at specific time points. Compound concentrations in plasma were determined by LC-MS/MS, and PK parameters were calculated to characterize the pharmacokinetic behavior of the compounds of the present disclosure in plasma.
BALB/c nude mice, female, supplied by Jiangsu GemPharmatech Co., Ltd.
Dosing regimen for BALB/c nude mice: The PO (oral) experimental group consisted of 3 mice, which were administered at a dose of 30 mg/kg and a volume of 10 mL/kg. The dosing vehicle was 5% (v/v) DMSO/10% (v/v) Solutol/85% (v/v) saline.
Following administration, 0.025 mL of blood was collected via venipuncture at the following time points: 0.0833 (IV), 0.25, 0.5, 1, 2, 4, 8, and 24 hours. Blood samples were collected into EDTA-K2 tubes and centrifuged at 4°C and 2000 g for 10 minutes to separate plasma, which was stored at -80°C.
Mouse plasma processing: • 1) 15 µL of plasma was mixed with 200 µL of acetonitrile for protein precipitation. The mixture was vortexed and centrifuged for 15 minutes. • 2) The supernatant after processing was diluted with water and analyzed by LC/MS/MS to determine the concentration of the test compound.
Pharmacokinetic parameters were calculated using WinNonlin 6.1. Specifically, Cmax represents maximum plasma concentration, CL represents clearance, Vss represents volume of distribution at steady state, T1/2 represents terminal elimination half-life, MRTInf represents mean residence time, AUC represents area under the plasma concentration-time curve, and F represents bioavailability. Table 18: Pharmacokinetic parameters of the compounds of the present disclosure in CD-1 mice

With `CCc1nc2n(-c3nnc(C(F)F)s3)c3cc(S(=O)(=O)NC4(C)CC4)cc(N4C[C@H](C)N[C@@H](C)C4)c3n2n1` [Compound 065R], the Fold activation on PXR is 1.45. In addition, in series [1], the AUC was determined as 9.52 µM·h, the peak level (Cmax) was 1620 nM, the MRT inf stood at 4.39 h and the half-life is 2.62 h.
The corresponding values for `C[C@H]1CN(c2cc(S(=O)(=O)NC3(C)CC3)cc3c2n2nc(C(F)F)nc2n3-c2nnc(C(F)F)s2)C[C@H](C)N1` [Compound 065S] are 1.82, 9.21 µM·h, 1340 nM, 4.8 h and 2.69 h.
For the compound `C[C@H]1CN(c2cc(S(=O)(=O)NC3(C)CC3)cc3c2n2nc(C(F)(F)F)nc2n3-c2nnc(C(F)F)s2)C[C@H](C)N1` [Compound 065W], the Fold activation on PXR worked out at 1.11. For the same compound, in series [1], the area under the curve (AUC) was 16.4 µM·h, the Cmax turned out to be 1340 nM, the mean residence time (MRT inf) came to 7.74 h and the half-life was 5.28 h.

A word on the AUC: it is the area under the concentration-time curve, a measure of exposure. A higher AUC goes with high exposure. The term Cmax denotes the highest concentration seen after dosing. The term MRT inf denotes a mean duration of stay, worked out from the concentration-time curve. For orientation: half-life means the time in which the quantity being followed falls by half. Read a high half-life as slow decline.
